{"source": "patent US20090082367A1", "about": "“TRIAZOLE DERIVATIVE OR A SALT THEREOF” (ASTELLAS PHARMA INC., priority 2006, published 2009)", "key": {"[1]": {"target": "T1, human recombinant 11β-HSD2 (Homo sapiens, UniProt P80365)", "T1 sequence (P80365 1-405)": "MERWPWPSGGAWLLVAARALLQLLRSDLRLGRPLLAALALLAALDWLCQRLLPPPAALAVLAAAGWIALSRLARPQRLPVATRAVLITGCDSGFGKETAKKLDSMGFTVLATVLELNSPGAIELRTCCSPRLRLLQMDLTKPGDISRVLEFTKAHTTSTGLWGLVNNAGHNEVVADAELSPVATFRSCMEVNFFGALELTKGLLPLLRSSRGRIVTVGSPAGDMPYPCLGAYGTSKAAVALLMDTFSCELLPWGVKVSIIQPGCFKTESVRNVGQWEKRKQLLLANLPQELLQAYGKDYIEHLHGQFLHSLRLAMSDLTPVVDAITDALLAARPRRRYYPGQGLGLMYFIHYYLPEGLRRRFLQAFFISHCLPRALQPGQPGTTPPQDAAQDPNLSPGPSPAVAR", "assay": "Measuring test of human 11β-HSD2-inhibitory activity (HTRF cortisol detection)", "type": "biochemical", "details": "human recombinant 11β-HSD2, 200 nM cortisol, 200 μM NAD, pH 8.0, 37° C. 2 hours", "description": "Measurement of the 11β-HSD2 activity was carried out by the same method of the 11β-HSD1 activity measurement, except for the enzyme reaction conditions. The enzyme reaction was carried out by adding the compound to be tested having varied concentration to a reaction liquid consisting of 40 mM Tris-HCl buffer (pH 8.0), 200 nM cortisol, 200 μM nicotinamide adenine dinucleotide (NAD) and human recombinant 11β-HSD2, and then incubating at 37° C. for 2 hours (10 μl/well).\n(§1) The measured result was calculated by averaging the values of 3 wells of the same condition. The ratio when DMSO was added instead of the compound to be tested was regarded as 0% and the ratio when 11β-HSD1 or 11β-HSD2 was not added was regarded as 100%, thereby calculating 50% inhibition concentration of the compound to be tested as IC50 of the compound inhibitory activity."}, "[2]": {"target": "T2, human recombinant 11β-HSD1 (Homo sapiens, UniProt P28845)", "T2 construct": "made in house", "T2 sequence (P28845 whole entry)": "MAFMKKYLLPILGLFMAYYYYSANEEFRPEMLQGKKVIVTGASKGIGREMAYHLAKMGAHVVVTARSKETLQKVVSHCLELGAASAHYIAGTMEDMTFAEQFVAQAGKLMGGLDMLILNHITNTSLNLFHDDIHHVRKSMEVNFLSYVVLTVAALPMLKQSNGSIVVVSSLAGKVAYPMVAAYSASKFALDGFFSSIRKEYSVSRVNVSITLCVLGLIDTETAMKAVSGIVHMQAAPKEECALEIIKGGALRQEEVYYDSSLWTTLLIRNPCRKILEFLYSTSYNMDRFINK", "assay": "Measuring test of human 11β-HSD1-inhibitory activity (HTRF cortisol detection)", "type": "biochemical", "details": "human recombinant 11β-HSD1, 20 nM cortisone, 40 μM NADPH, pH 6.6, room temperature 1 hour", "description": "The procedure for measuring 11β-HSD1-inhibitory activity is as follows. In this connection, the enzyme reaction and measurement were carried out using a 384-well plate. The enzyme was prepared in accordance with a reference (Walker E. A. et al., Journal of Biological Chemistry, 2001, vol. 276, p. 21343-21350). The reaction was carried out by adding the compound to be tested having varied concentration to a reaction liquid consisting of 10 mM phosphate buffer (pH 6.6), 20 nM cortisone, 40 μM reduced nicotinamide adenine dinucleotide phosphate (NADPH) and human recombinant 11β-HSD1, and then incubating at room temperature for 1 hour (10 μl/well). The compound to be tested was prepared by dissolving in dimethyl sulfoxide (DMSO) to a DMSO concentration of 1% in the reaction liquid. After the enzyme reaction, the enzyme inhibitory activity was measured by detecting cortisol using a homogeneous time-resolved fluorescence method (HTRF). Each of the XL-665-labeled cortisol containing 400 μM carbenoxolone and cryptate-labeled cortisol antibody (CIS bio international) was added in 5 μl/well portions and incubated at room temperature for 2 hours, and then the fluorescence intensity was measured using a fluorophotometer (trade name: Discovery, Perkin Elmer), and the enzyme inhibitory activity was calculated from the fluorescence intensity ratio at two wavelengths (665 nm/620 nm).\nas §1"}, "ob/ob male mice [3]": {"system": "ob/ob male mice", "assay": "Ob/ob mouse blood glucose-lowering test", "type": "in vivo", "details": "oral 10 mg/kg bid for 9 days, non-fasting, 12 hours after final administration, n=6", "description": "(§2) Using 6% 2-hydroxypropyl-β-cyclodextrin as the solvent, a compound liquid was prepared. Blood glucose values were measured under non-fasting using ob/ob male mice of 9 weeks of age (blood glucose value, 300 mg/dl or more), and then arrangement into groups was carried out at random in such a manner that their blood glucose values became uniform. The compound to be tested was repeatedly orally administered (10 mg/kg, bid) twice a day for 9 days, and blood glucose values after 12 hours of the final administration were measured (n=6). The blood glucose value was measured by carrying out colorimetric determination of the amount of glucose (mg/dl) in heparin blood plasma obtained by collecting blood in a heparin-coated glass capillary and subsequently centrifuging it."}, "ob/ob male mice [4]": {"system": "ob/ob male mice", "assay": "Ob/ob mouse triglyceride-lowering test", "type": "in vivo", "details": "oral 10 mg/kg bid for 9 days, non-fasting, 12 hours after final administration, n=6", "description": "as §2, with “Triglyceride” for “Blood glucose”, “age,” for “age (blood glucose value, 300 mg/dl or more),”, “triglyceride” for “blood glucose”, “Triglyceride” for “The blood glucose value”, “triglyceride” for “glucose”"}}}
{"smiles": "Cn1c(C2(C)CC2)nnc1C(C)(C)c1ccc(Cl)s1", "note": "[Example 283]", "values": [{"measurement": "IC50", "setting": "[1]", "value": "> 3", "unit": "µM"}, {"measurement": "IC50", "setting": "[2]", "value": 0.0024, "unit": "µM"}]}
{"smiles": "Cn1c(C(C)(C)C)nnc1C(C)(C)c1ccc(Cl)s1", "note": "[Example 281]", "values": [{"measurement": "IC50", "setting": "[1]", "value": "> 3", "unit": "µM"}, {"measurement": "IC50", "setting": "[2]", "value": 0.0052, "unit": "µM"}]}
{"smiles": "CC(C)(c1ccsc1)c1nnc(C2CCC2)n1C1CC1", "note": "[Example 173]", "values": [{"measurement": "IC50", "setting": "[1]", "value": "> 10", "unit": "µM"}, {"measurement": "IC50", "setting": "[2]", "value": 0.012, "unit": "µM"}]}
{"smiles": "CC(C)(c1ccccn1)c1nnc(C2CC2)n1CCc1c(F)cccc1F", "note": "[Example 154]", "values": [{"measurement": "blood glucose-lowering action", "setting": "ob/ob male mice [3]", "value": 21, "unit": "%"}, {"measurement": "IC50", "setting": "[1]", "value": "> 30", "unit": "µM"}, {"measurement": "IC50", "setting": "[2]", "value": 0.038, "unit": "µM"}]}
{"smiles": "CC(C)(c1sc(C(F)(F)F)cc1F)c1nnc(C2CC2)n1C1CC1", "note": "[Example 280]", "values": [{"measurement": "blood glucose-lowering action", "setting": "ob/ob male mice [3]", "value": 35, "unit": "%"}, {"measurement": "IC50", "setting": "[1]", "value": "> 3", "unit": "µM"}, {"measurement": "triglyceride-lowering action", "setting": "ob/ob male mice [4]", "value": 42, "unit": "%"}, {"measurement": "IC50", "setting": "[2]", "value": 0.0047, "unit": "µM"}]}
{"smiles": "CC(C)(c1cc(Br)cs1)c1nnc(C2CC2)n1C1CC1", "note": "[Example 77]", "values": [{"measurement": "IC50", "setting": "[1]", "value": "> 10", "unit": "µM"}, {"measurement": "IC50", "setting": "[2]", "value": 0.012, "unit": "µM"}]}
{"smiles": "CC(C)(c1ccc(Br)s1)c1nnc(C2CC2)n1CCc1c(F)cccc1F", "note": "[Example 167]", "values": [{"measurement": "blood glucose-lowering action", "setting": "ob/ob male mice [3]", "value": 24, "unit": "%"}, {"measurement": "IC50", "setting": "[1]", "value": "> 30", "unit": "µM"}, {"measurement": "IC50", "setting": "[2]", "value": 0.07, "unit": "µM"}]}
{"smiles": "CC(C)(c1ccsc1)c1nnc(C2CC2)n1C1CC1", "note": "[Example 172]", "values": [{"measurement": "blood glucose-lowering action", "setting": "ob/ob male mice [3]", "value": 27, "unit": "%"}, {"measurement": "IC50", "setting": "[1]", "value": "> 10", "unit": "µM"}, {"measurement": "IC50", "setting": "[2]", "value": 0.019, "unit": "µM"}]}
{"smiles": "CN(C1CCC1)C(C)(C)c1nnc(C2CC2)n1C1CC1", "note": "[Example 57]", "values": [{"measurement": "IC50", "setting": "[1]", "value": "> 30", "unit": "µM"}, {"measurement": "IC50", "setting": "[2]", "value": 0.07, "unit": "µM"}]}
{"smiles": "CC(C)(c1ccc(C(F)(F)F)s1)c1nnc(C2CC2)n1C1CC1", "note": "[Example 169]", "values": [{"measurement": "IC50", "setting": "[1]", "value": "> 10", "unit": "µM"}, {"measurement": "IC50", "setting": "[2]", "value": 0.024, "unit": "µM"}]}
{"smiles": "CC(C)(c1nnc(C2CC2)n1C1CC1)n1cccc1Cl", "note": "[Example 9, 3-[1-(2-chloro-1H-pyrrol-1-yl)-1-methylethyl]-4,5-dicyclopropyl-4H-1,2,4-triazole]", "values": [{"measurement": "IC50", "setting": "[1]", "value": "> 30", "unit": "µM"}, {"measurement": "IC50", "setting": "[2]", "value": 0.062, "unit": "µM"}]}
{"smiles": "CC(C)(c1ccc(Br)s1)c1nnc(C2CC2)n1C1CC1", "note": "[Example 3, 3-[1-(5-bromo-2-thienyl)-1-methylethyl]-4,5-dicyclopropyl-4H-1,2,4-triazole]", "values": [{"measurement": "blood glucose-lowering action", "setting": "ob/ob male mice [3]", "value": 27, "unit": "%"}, {"measurement": "IC50", "setting": "[1]", "value": "> 3", "unit": "µM"}, {"measurement": "triglyceride-lowering action", "setting": "ob/ob male mice [4]", "value": 50, "unit": "%"}, {"measurement": "IC50", "setting": "[2]", "value": 0.0079, "unit": "µM"}]}
{"smiles": "CC(C)(c1cccc(Cl)n1)c1nnc(C2CC2)n1CCc1ccccc1", "note": "[Example 85]", "values": [{"measurement": "IC50", "setting": "[1]", "value": "> 10", "unit": "µM"}, {"measurement": "IC50", "setting": "[2]", "value": 0.034, "unit": "µM"}]}
{"smiles": "Brc1ccn(C2(c3nnc(C4CC4)n3C3CC3)CCC2)c1", "note": "[Example 213]", "values": [{"measurement": "IC50", "setting": "[1]", "value": "> 10", "unit": "µM"}, {"measurement": "IC50", "setting": "[2]", "value": 0.041, "unit": "µM"}]}
{"smiles": "Fc1ccc(CCn2c(C3CC3)nnc2C2(c3ccccn3)CCC2)cc1", "note": "[Example 198]", "values": [{"measurement": "IC50", "setting": "[1]", "value": "> 10", "unit": "µM"}, {"measurement": "IC50", "setting": "[2]", "value": 0.025, "unit": "µM"}]}
